Data reported in EP1388013B1, “COMPOSITIONS AND METHODS FOR THE USE OF FIBRONECTIN FRAGMENTS IN THE DIAGNOSIS OF CANCER” (THE REGENTS OF THE UNIVERSITY OF MICHIGAN, priority 2001, dated 2002).
No end group written: not given here.

Columns and labels:
[1] = tested on: metastatic DU-145 prostate cancer cells; assay: SU-ECM invasion assay, DU-145 cells; type: cell-based, human; settings: PHSRN sequence of fibronectin alone; Example 4
Experimental: Adult Strongylocentrotus purpuratus sea urchins were obtained from Pacific BioMarine, and their embryos were cultured to the early pluteus stage in artificial sea water at 15°C. SU-ECM were prepared from them by treatment with nonionic detergent and sterilized by dilution in the appropriate media.
[…] When appropriate, purified bovine plasma fibronectin (Sigma, St. Louis, Mo), purified 120 kDa chymotryptic fragment (Gibco BRL), PHSRN or PHSCN peptides (synthesized at the Biomedical Research Core Facilities of the University of Michigan), or GRGDSP or GRGESP peptides (Gibco BRL) were added to the resuspended cells prior to placement of the cells on SU-ECM. In each well of a plate used for an invasion assay, SU-ECM were placed in 0.5 ml of the appropriate medium, and 0.5ml of the resuspended cells dropped on their exterior surfaces. Invasion assays were incubated 1 to 16 hours prior to scoring. If some circumstances, invasion assays were fixed in phosphate-buffered saline (PBS) with 2% formaldehyde for 5 minutes at room temperature, then rinsed into PBS.
Invasion assays were coded and scored blindly by microscopic examination under phase contrast at 200- and 400-fold magnification. Each cell contacting an SU-ECM was scored for its position relative to the exterior or interior surfaces. A cell was judged to have invaded if it was located on an interior surface below the focal plane passing through the upper surface of the SU-ECM, but above the focal plane passing through its lower surface. The minimum viability of the cells in each assay was always ascertained at the time of assay by determining the fraction of spread, adherent cells on the bottom of each well scored.
An invasion frequency is defined as the fraction of cells in contact with basement membranes which were located in their interiors at the time of assay. Thus, an invasion frequency of 1 denotes invasion by 100% of the cells in contact with basement membranes. Invasion frequencies were determined multiple times for each cell type assayed. For each type of cell assayed the mean and standard deviation of the invasion frequencies were calculated.
The method of Example 4 is employed, with the addition of varying concentrations of the PHSCN peptide.
Thus, the procedure in Example 4 provides a method for determining the inhibitory potential of the PHSCN peptide by comparing the number of cell invasions in the presence of the PHSCN peptide, with the number of cell invasions in the absence of the PHSCN peptide.
In this example, in vitro invasion of cancer cells into substrates is inhibited with peptides that have been chemically modified with protecting groups and peptides having protecting groups as well as the modification wherein an L-amino acid has been replaced with the D-isomer. PHSCN peptide, blocked PHSCN peptide, and blocked PHSCN peptide with a D-cysteine instead of the L-isomer, were tested (Figure 4A, 4B).
In this example, in vitro invasion of cancer cells into substrates is inhibited with non-peptide mimetics in comparison with chemically modified peptides (on a molar basis). The peptides of Example 10 (i.e. peptides chemically modified with protecting groups and peptides having protecting groups as well as the modification wherein an L-amino acid has been replaced with the D-isomer) were compared with the non-peptide mimetics DL-N-Acetylhomocysteinethiolactone, Thiobutyrolactone, and Mercaptopropionic acid, in order to investigate the structure activity relationship for invasion inhibition by interaction with the PHSRN-binding pocket of the α5β1 fibronectin receptor (Figure 7)

[2] = tested on: normal, neonatal fibroblasts; assay: Invasion of fibronectin-depleted Matrigel by fibroblasts; type: cell-based; settings: gelatin plus antibody panned Matrigel; Figure 2
Experimental: Anti-fibronectin antibody-coated wells: Wells of a 24-well plate were coated with an anti-fibronectin antibody. A mouse monoclonal antibody to human fibronectin was obtained from Oncogene Science (Catalog #CP13). Each well was incubated with 1 ml of antibody at a concentration of […] for 2 hours at room temperature. Each well was then incubated with a solution of 3% BSA in PBS for 2 hours at room temperature. Following the two incubation periods, the wells were thoroughly washed with PBS and stored at -20 °C until use.
Depleting Matrigel of Fibronectin: Matrigel was panned over eight gelatin-coated wells (as described above in Example 2) to remove most of the fibronectin and its fragments. Thereafter, the Matrigel was placed in the antibody-coated wells to remove any remaining fragments of fibronectin which contain the cell-binding domain but not the gelatin-binding domain. The Matrigel was incubated in an ice bucket on an orbital shaker at 4 °C for 2 hours. Once the Matrigel was depleted, it was collected in Eppendorf tubes. The fibronectin-depleted Matrigel was plated on a 48-well plate (150 µl/well), sterilized under a UV light for 10 minutes and incubated at 37 °C overnight. The Matrigel formed a gel and the following day, cells were added to the wells. […]

[3] = tested on: Normal neonatal keratinocytes; assay: SU-ECM invasion assay, keratinocytes; type: cell-based; settings: in the presence of serum, Figure 11
Description: In one example cells for the invasion assay are harvested by rinsing in Hanks' balanced salt solution, followed by brief treatment with 0.25% trypsin, 0.02% EDTA, and pelleting and resuspension in the appropriate medium with or without 5% FCS at a density of about 50,000 cells per ml. When appropriate, purified bovine plasma fibronectin (from Sigma, St. Louis, Mo), purified 120 kDa chymotryptic fragment (Gibco BRL) or PHSRN peptides (synthesized at the Biomedical Research Core Facilities of the University of Michigan) are added to the resuspended cells prior to placement of the cells on SU-ECM. […]
Invasion assays are coded and scored blindly by microscopic examination under phase contrast at 200- and 400-fold magnification. Each cell contacting an SU-ECM is scored for its position relative to the exterior or interior surfaces. […] The minimum viability of the cells in each assay is always ascertained at the time of assay by determining the fraction of spread, adherent cells on the bottom of each well scored.
An invasion frequency is defined as the fraction of cells in contact with basement membranes which are located in their interiors at the time of assay. […] Invasion frequencies are determined multiple times for each cell type assayed. For each type of cell assayed the mean and standard deviation of the invasion frequencies were calculated. […]

PHSRN [PHSRN] was tested, and the “induction of DU-145 cell invasion of SU-ECM” value [1] was “induced to invade”, the “induction of fibroblast invasiveness on fibronectin-depleted Matrigel” value [2] was “could be induced” and the “maximal invasion percentages for keratinocytes” value [3] was “about 20%”.
